Results published in US20040121946A9, “Inducing cellular immune responses to her2/neu using peptide and nucleic acid compositions” (priority 2002, published 2004).

How the values were obtained:
HLA-A*0301 = HLA-A*0301 (Homo sapiens, UniProt P04439); assay type: binding; conditions: Table XXIII, HLA-A3 supermotif-bearing peptides
HLA-A*1101 = HLA-A*1101 (Homo sapiens, UniProt P04439, A114D/D185E/E176A/F33Y/L180Q/S129P/T187R); assay type: binding; conditions: Table XXIII, HLA-A3 supermotif-bearing peptides
HLA-A*3101 = HLA-A*3101 (Homo sapiens, UniProt P04439, A270S/D185E/E176V/E277Q/F33T/G231S/G80R/H175R/I121M/I218V/I322F/K168Q/L300P/L318F/M331R/P217A/Q94H/R138Q/T323A/T345S/T97I/V358M); assay type: binding; conditions: Table XXIII, HLA-A3 supermotif-bearing peptides
HLA-A*3301 = HLA-A*3301 (Homo sapiens, UniProt P04439, A270S/D185E/E176V/E277Q/E87N/F33T/G231S/H175R/I121M/I218V/I322F/K168Q/K210R/L300P/L318F/M331R/P217A/Q86R/Q94H/R138Q/T323A/T345S/T97I/V358M/Y195H); assay type: binding; conditions: Table XXIII, HLA-A3 supermotif-bearing peptides
HLA-A*6801 = HLA-A*6801 (Homo sapiens, UniProt P04439, A269V/D185E/E176V/E277Q/E87N/F33Y/G231S/I121M/I166T/I218V/L180W/L300P/L318F/N151K/P208A/P217A/Q86R/R169H/T345S); assay type: binding; conditions: Table XXIII, HLA-A3 supermotif-bearing peptides
DRB1*0101 (DR1) = DRB1*0101 (DR1) (Homo sapiens, UniProt P01903+P01911, A100R/D57E/F55L/F60I/F76Y/I96L/L162R/M171V/P40L/Q125E/R42F/V115G/Y59C); test: HLA class II peptide binding assay, purified HLA; conditions: Table XIX, DR supermotif peptides; unit not given
DRB1*0301 (DR3) = DRB1*0301 (DR3) (Homo sapiens, UniProt P01903+P01911, A100K/A102G/A103R/A169T/F55Y/I96L/K41T/L162R/M171V/P40S/Q125H/Q178H/Q39Y/R42S/S66N/T106N/T262R/W38E/Y61H); test: HLA class II peptide binding assay, purified HLA; conditions: Table XIX, DR supermotif peptides; unit not given
DRB1*0401 (DR4w4) = DRB1*0401 (DR4w4) (Homo sapiens, UniProt P01903+P01911, A100K/A169T/F76Y/I96L/K127E/L162R/M171V/N62H/P40V/Q125Y/R42H/S133A/S149N/S66Y/V115G/V209L/W38E); test: HLA class II peptide binding assay, purified HLA; conditions: Table XIX, DR supermotif peptides; unit not given
DRB1*0701 (DR7) = DRB1*0701 (DR7) (Homo sapiens, UniProt P01903+P01911, A100R/A102G/A103Q/D57E/D86V/E43K/F76Y/K127E/L162R/M171V/P40G/Q125H/Q99D/R33Q/R42Y/R54Q/S133A/S66F/T210M/V115G/Y107V/Y59L/Y89S); test: HLA class II peptide binding assay, purified HLA; conditions: Table XIX, DR supermotif peptides; unit not given
DRB1*0802 (DR8w2) = DRB1*0802 (DR8w2) (Homo sapiens, UniProt P01903+P01911, A100R/A103L/A169T/F76Y/H45Y/I96F/K41T/L162R/M171V/P40S/Q125H/Q178H/Q39Y/Q99D/R218S/R42G/S66Y/V115G/W38E); test: HLA class II peptide binding assay, purified HLA; conditions: Table XIX, DR supermotif peptides; unit not given
DRB1*1101 (DR5w11) = DRB1*1101 (DR5w11) (Homo sapiens, UniProt P01903+P01911, A100R/A169T/A87E/I96F/K41T/L162R/M171V/P40S/Q125H/Q178H/Q39Y/Q99D/R42S/S66Y/T262R/V115G/W38E); test: HLA class II peptide binding assay, purified HLA; conditions: Table XIX, DR supermotif peptides; unit not given
DRB1*1302 (DR6w19) = DRB1*1302 (DR6w19) (Homo sapiens, UniProt P01903+P01911, A100E/A169T/K41T/L162R/M171V/P40S/Q125H/Q178H/Q39Y/Q99D/R42S/S66N/T262R/V115G/W38E/Y61H); test: HLA class II peptide binding assay, purified HLA; conditions: Table XIX, DR supermotif peptides; unit not given
DRB1*1501 (DR2w2β1) = DRB1*1501 (DR2w2β1) (Homo sapiens, UniProt P01903+P01911); test: HLA class II peptide binding assay, purified HLA; conditions: Table XIX, DR supermotif peptides; unit not given
DRB5*0101 (DR2w2β2) = DRB5*0101 (DR2w2β2) (Homo sapiens, UniProt P01903+Q30154); test: HLA class II peptide binding assay, purified HLA; conditions: Table XIX, DR supermotif peptides; unit not given
[1] = tested on: HLA-DR molecules (DR1, DR4w4, DR7, DRB5*0101, DRB1*1501, DRB1*1101, DRB1*0802, DRB1*1302); test: DR supertype cross-reactive binding; design: species or system human; conditions: for No. of DR Alleles Crossbound: Table XXXI; for DR147 Binding / DR147 Cross-binding: number of DR1, DR4w4, DR7 bound; for DR147 Binding: Table XXIX; for DR147 Cross-binding: Table XXVIII; for Broad Binding (5/8): number of the 8 DR alleles bound

Row | IC50 (HLA-A*0301) [nM] | IC50 (HLA-A*1101) [nM] | IC50 (HLA-A*3101) [nM] | IC50 (HLA-A*3301) [nM] | IC50 (HLA-A*6801) [nM] | DR1 binding data (DRB1*0101 (DR1)) | DR3 binding data (DRB1*0301 (DR3)) | DR4w4 binding data (DRB1*0401 (DR4w4)) | DR7 binding data (DRB1*0701 (DR7)) | DR8w2 binding data (DRB1*0802 (DR8w2)) | DR5w11 binding data (DRB1*1101 (DR5w11)) | DR6w19 binding data (DRB1*1302 (DR6w19)) | DR2wB1 binding data (DRB1*1501 (DR2w2β1)) | DR2w2B2 binding data (DRB5*0101 (DR2w2β2)) | No. of DR Alleles Crossbound [1] | DR147 Binding [1] | DR147 Cross-binding [1] | Broad Binding (5/8) [1] | SMILES
1 | 275 | > 10000 | 25 | 121 | 205 |  |  |  |  |  |  |  |  |  |  |  |  |  | CC[C@H](C)[C@H](N)C(=O)N[C@@H](CC(C)C)C(=O)N[C@@H](CCCCN)C(=O)NCC(=O)NCC(=O)N[C@H](C(=O)N[C@@H](CC(C)C)C(=O)N[C@H](C(=O)N[C@@H](CCC(N)=O)C(=O)N[C@@H](CCCNC(=N)N)C(=O)O)[C@@H](C)CC)C(C)C [Her2/neu.148]
2 | 26 | 102 | 450 | 6590 | 27 |  |  |  |  |  |  |  |  |  |  |  |  |  | CC[C@H](C)[C@H](N)C(=O)N[C@H](C(=O)N[C@@H](CCCCN)C(=O)NCC(=O)NCC(=O)N[C@H](C(=O)N[C@@H](CC(C)C)C(=O)N[C@H](C(=O)N[C@@H](CCC(N)=O)C(=O)N[C@@H](CCCCN)C(=O)O)[C@@H](C)CC)C(C)C)C(C)C [Her2/neu.148.V2K10]
3 |  |  |  |  |  | 0.0700 | 0.0021 | 0.0029 | 0.0320 | 0.6400 | 0.4700 | 0.0150 | 0.0110 | 0.0620 | 7 | 2 | 2 | 7 | CC[C@H](C)[C@H](NC(=O)CNC(=O)[C@H](Cc1ccccc1)NC(=O)[C@@H](NC(=O)[C@@H](NC(=O)CNC(=O)[C@H](CC(C)C)NC(=O)[C@@H](N)C(C)C)C(C)C)C(C)C)C(=O)N[C@@H](CC(C)C)C(=O)N[C@H](C(=O)N[C@@H](CCCCN)C(=O)N[C@@H](CCCNC(=N)N)C(=O)N[C@@H](CCCNC(=N)N)C(=O)N[C@@H](CCC(N)=O)C(=O)N[C@@H](CCC(N)=O)C(=O)O)[C@@H](C)CC
4 |  |  |  |  |  | 0.3500 | 0.0062 | 0.1200 | 0.5600 | 0.0009 | 0.0140 | 0.3400 | 0.0220 | −0.0007 | 5 | 3 | 3 | 5 | CC[C@H](C)[C@H](NC(=O)CNC(=O)[C@H](CC(C)C)NC(=O)[C@H](CC(C)C)NC(=O)[C@H](CCCNC(=N)N)NC(=O)[C@@H](N)CO)C(=O)N[C@@H](CS)C(=O)N[C@@H](CC(C)C)C(=O)N[C@H](C(=O)N[C@@H](CO)C(=O)N[C@H](C(=O)N[C@H](C(=O)N[C@@H](CCC(N)=O)C(=O)N[C@@H](CC(C)C)C(=O)N[C@H](C(=O)O)C(C)C)C(C)C)[C@@H](C)O)[C@@H](C)O
